Test results published in patent US20250296917A1, “SPIRO-CYCLIC AMINE DERIVATIVES AS S1P MODULATORS” (AbbVie Deutschland GmbH & Co. KG, priority 2020, published 2025).

Tests used:
Assay type in all cases: cell-based
[1] = target: T1, human S1PR1 (Homo sapiens, UniProt P21453); test: Intracellular Ca2+ release agonist assay (Calcium 5 FLIPR), CHO-K1 cells expressing human S1PR1; details: agonism, recombinant CHO-K1 cells with aequorin and Gq/i5; read-out: hS1PR1 pEC50 (converted)
T1 construct: host or cells: CHO-K1
Procedure: (§1) Agonist potency and efficacy were assessed by measurement of intracellular […] release. Recombinant CHO-K1 cells (Euroscreen, Brussels, Belgium) expressing human S1PR5, S1PR1, S1PR3 or S1PR4 receptors, aequorin, and GTP binding protein Gq/i5 were cultured using a medium containing nutrient mixture F-12 Ham (Sigma-Aldrich) supplemented with 10% FBS, 100 µg/mL gentamicin and equilibrated at 5% C02. 15.000 cells in […] medium were seeded into Biocoat poly-D-Lysine coated 384 well plates (Becton Dickinson #35-6663) and grown to ˜95% confluency after 24 h. Culture medium was replaced by an assay buffer consisting of HBBS with Ca2+ and Mg2+ (Invitrogen #14025-050), 20 mmol/L Hepes (Sigma-Aldrich #H-3375), 2.5 mmol/L probenecid (Sigma-Aldrich #P-8761, and 0.1% BSA (Sigma-Aldrich #A-7030) pH 7.4. The Calcium 5 no-wash FLIPR assay kit (Molecular Devices #5000625) was performed as described in the kit instructions. Cells were incubated with Calcium 5 dye for 1 h at 37° C., 5% CO2 in the dark. After 45 min adaptation to RT assessment of agonist stimulation of intracellular Ca2+ release was performed by addition of test compounds at various concentrations obtained by serial dilution. Phospho-fingolimod was used as positive control and reference agonist (intrinsic activity 100%).

[2] = target: hS1PR2 (recombinant human S1P2 receptor) (Homo sapiens, UniProt O95136); test: hS1PR2 agonist aequorin luminescence assay (Euroscreen/Eurofins); details: agonism, cells co-expressing apoaequorin, human Gα16 and S1P2 receptor; read-out: hS1PR2 pEC50 (converted)
Procedure: Efficacy testing for hS1PR2 was performed at Euroscreen, Eurofins, France. Cells co-expressing mitochondrial Apoaequorin, recombinant human Gα16 and S1P2 receptor (FAST-0198A) grown to mid-log phase in culture media without antibiotics were detached with PBS-EDTA, centrifuged and resuspended in assay buffer (DMEM/HAM's F12 with HEPES, without phenol red+0.1 fatty acid free BSA) at a concentration of 1×10^6 cells/ml. Cells were incubated at room temperature for at least 4 h with coelenterazine. The reference agonists S1P and […] were tested to evaluate the performance of the assay on each day of the test and determine the EC50. For agonist testing, cell suspension was mixed 1:1 with test or reference agonist in 384-well plate. The resulting emission of light was recorded using a Hamamatsu Functional Drug Screening System 6000 (FDSS) luminometer. On each day of experimentation, reference compounds were tested at several concentrations to obtain a dose-response curve and an estimated EC50 value. Reference values thus obtained for the test were compared to historical values obtained from the same receptor and used to validate the experimental session.

[3] = target: T2, human S1PR3 (Homo sapiens, UniProt Q99500); test: Intracellular Ca2+ release agonist assay (Calcium 5 FLIPR), CHO-K1 cells expressing human S1PR3; details: agonism, recombinant CHO-K1 cells with aequorin and Gq/i5; read-out: hS1PR3 pEC50 (converted)
T2 construct: host or cells: CHO-K1
Procedure: as §1

Measured: EC50

T1 sequence (P21453 whole entry): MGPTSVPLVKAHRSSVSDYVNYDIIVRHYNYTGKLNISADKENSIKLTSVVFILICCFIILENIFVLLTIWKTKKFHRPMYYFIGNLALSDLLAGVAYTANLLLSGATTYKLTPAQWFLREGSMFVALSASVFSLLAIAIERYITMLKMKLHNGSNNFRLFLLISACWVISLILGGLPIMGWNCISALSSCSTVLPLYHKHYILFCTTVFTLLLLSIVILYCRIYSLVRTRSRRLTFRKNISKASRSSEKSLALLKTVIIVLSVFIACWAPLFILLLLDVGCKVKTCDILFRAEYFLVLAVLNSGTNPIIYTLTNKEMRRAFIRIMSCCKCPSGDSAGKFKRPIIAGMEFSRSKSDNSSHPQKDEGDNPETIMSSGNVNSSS
Sequence of hS1PR2 (recombinant human S1P2 receptor) (O95136 whole entry): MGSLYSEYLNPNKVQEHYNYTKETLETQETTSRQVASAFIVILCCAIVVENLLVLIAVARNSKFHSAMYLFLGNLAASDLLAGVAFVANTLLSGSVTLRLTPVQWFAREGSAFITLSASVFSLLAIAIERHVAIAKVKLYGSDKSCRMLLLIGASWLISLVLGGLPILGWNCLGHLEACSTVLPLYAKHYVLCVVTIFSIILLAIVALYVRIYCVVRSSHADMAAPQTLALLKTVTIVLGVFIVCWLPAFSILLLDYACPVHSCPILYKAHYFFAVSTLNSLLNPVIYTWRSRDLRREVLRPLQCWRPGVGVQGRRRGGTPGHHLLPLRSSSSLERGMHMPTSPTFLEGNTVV
T2 sequence (Q99500 whole entry): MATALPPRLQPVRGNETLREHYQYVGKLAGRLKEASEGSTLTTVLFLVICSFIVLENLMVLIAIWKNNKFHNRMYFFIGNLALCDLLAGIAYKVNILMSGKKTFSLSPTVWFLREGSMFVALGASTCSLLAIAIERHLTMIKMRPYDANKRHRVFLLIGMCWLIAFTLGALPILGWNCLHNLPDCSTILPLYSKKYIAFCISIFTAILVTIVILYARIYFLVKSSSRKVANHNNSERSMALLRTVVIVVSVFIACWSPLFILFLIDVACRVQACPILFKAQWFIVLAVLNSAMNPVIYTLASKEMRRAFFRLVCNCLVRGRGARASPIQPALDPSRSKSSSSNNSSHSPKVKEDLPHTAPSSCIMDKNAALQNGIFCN

CCc1cccc(Cl)c1COc1ccc2c(c1)CC[C@@]21CN(CCC(=O)O)CCO1 [Compound 1a, (S)-3-(5-((2-chloro-6-ethylbenzyl)oxy)-2,3-dihydrospiro[indene-1,2′-morpholin]-4′-yl)propanoic acid]
< 5.01 µM: all assays above
